Measured values as given in PubChem BioAssay (NCI).
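Cells were grown in 96-well plates and exposed to each compound for 48 hours at five concentrations; endpoints were interpolated linearly between bracketing concentrations, or set to the highest concentration if not reached. GI50 marks 50% less growth. TGI marks complete inhibition of growth.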

Assays:
Assay in all cases: NCI tumour cell line growth inhibition, 48 h
MCF7 breast = test system: MCF7 breast
HCT-116 colon = test system: HCT-116 colon
RXF 393 renal = test system: RXF 393 renal
A549 NSCLC = test system: A549 NSCLC
OVCAR-5 ovarian = test system: OVCAR-5 ovarian
COLO 205 colon = test system: COLO 205 colon
HCC-2998 colon = test system: HCC-2998 colon
NCI-H226 lung = test system: NCI-H226 lung
SK-MEL-2 melanoma = test system: SK-MEL-2 melanoma
SF-268 CNS = test system: SF-268 CNS

| Structure (SMILES) | GI50 (MCF7 breast) [µM] | TGI (MCF7 breast) [µM] | GI50 (HCT-116 colon) [µM] | TGI (HCT-116 colon) [µM] | GI50 (RXF 393 renal) [µM] | TGI (RXF 393 renal) [µM] | GI50 (A549 NSCLC) [µM] | TGI (A549 NSCLC) [µM] | GI50 (OVCAR-5 ovarian) [µM] | TGI (OVCAR-5 ovarian) [µM] | GI50 (COLO 205 colon) [µM] | TGI (COLO 205 colon) [µM] | GI50 (HCC-2998 colon) [µM] | TGI (HCC-2998 colon) [µM] | GI50 (NCI-H226 lung) [µM] | TGI (NCI-H226 lung) [µM] | GI50 (SK-MEL-2 melanoma) [µM] | TGI (SK-MEL-2 melanoma) [µM] | GI50 (SF-268 CNS) [µM] | TGI (SF-268 CNS) [µM] |
| --- | --- | --- | --- | --- | --- | --- | --- | --- | --- | --- | --- | --- | --- | --- | --- | --- | --- | --- | --- | --- |
| COc1cc2c(c(OC)c1OC)C(=O)CC(c1cccc(NC(=O)c3ccc(Br)cc3)c1)O2 (stereo not given) | 1.9 | 49.3 | 2.63 | > 100 | 4.07 | > 100 | 3.57 | > 100 | > 100 | > 100 | 3.17 | > 100 | 7.49 | > 100 | 3 | > 100 | 2.16 | 5.38 | 2.57 | > 100 |
| COc1cc(/C=N/Nc2ncnc3c2cnn3C(C)C)ccc1O | 4.68 | 16.1 | 8.02 | > 25 | 4.66 | 12.7 | 9.92 | > 25 | 8.83 | > 25 | 12.2 | > 25 | 17.3 | > 25 | 9.27 | > 25 | 6.82 | 18.7 | 7.68 | > 22.8 |
| O=C(/C=C/c1ccccc1)c1c[nH]c2ccccc2c1=O | 2.33 | 12.6 | 3.11 | 12.1 | 3.05 | 11.5 | 2.35 | 10.3 | 3.87 | 17 | 2.39 | 4.68 | 2.85 | 9.48 | 4.81 | 17.3 | 2.42 | 5.72 | 2.81 | 10.3 |
| O=C1c2ccccc2NC(c2cc(Cl)cc(Cl)c2O)N1CCc1ccccn1 (stereo not given) |  | > 100 |  | > 100 |  | > 100 |  | > 100 |  | > 100 |  | > 100 |  | > 100 |  | > 100 |  | > 100 |  | > 100 |
| C=C1C(=O)O[C@H]2[C@H]1CC/C(Cn1cc(CNCCc3c[nH]c4ccc(Cl)cc34)nn1)=C\CC[C@@]1(C)O[C@@H]21 | 2.59 | 11.5 | 3.31 | 10 | 2.66 | 9.69 | 34.9 | > 100 | 11.5 | 26.7 | 1.96 | 3.75 | 20.3 | 44.6 | 31.3 | > 100 | 10.3 | 26.1 | 12.5 | 33.6 |
| COc1ccc(-c2nn(-c3ccc(NC(=O)c4ccc(Cl)c(C(F)(F)F)c4)cc3)cc2-c2ccncc2)cc1Cl | 1.59 | > 100 | 1.05 | > 100 | 0.168 | 0.489 | 1.81 | > 100 | 1.33 | > 100 | 1.27 | 3.48 | 1.06 | > 43.4 | 4.75 | > 100 | 0.345 | 1.44 | 0.896 | > 100 |
| Cc1oc2nc[nH]c(=O)c2c1C(=O)/C=C/c1ccc(Cl)cc1 | 1.39 | 12.3 | 1.59 | 3.94 | 1.97 | 4.98 | 2.66 | 11.2 | 3.17 | 12 | 1.9 | 4.22 | 1.79 | 3.65 | 1.96 | 7.36 | 3.13 | 12.3 | 3.17 | 16.8 |
| O=C(/C=C/C12c3ccccc3C(c3ccccc31)C1C(=O)N(c3ccccc3)C(=O)C12)c1ccc(Cl)cc1 (stereo not given) | 0.885 | > 100 | 0.537 | 2.16 | 1.27 | 2.87 | 2.37 | > 100 | 1.6 | 4.66 | 1.79 | 3.58 | 1.7 | 3.66 | 2.04 | 5.82 | 2.48 | 5.86 | 4.56 | > 100 |
